Numbers after ± are expanded uncertainties.
Assay: molar enthalpy of vaporization or sublimation
Conditions: 298.15 K; Crystal; Static calorimetry

molar enthalpy: 28.6 ± 0.598 kcal/mol
SMILES: OCCc1c[nH]c2ccccc12 [2-(1H-indol-3-yl)ethanol]

Reference: the NIST ThermoML archive (doi:10.1016/j.tca.2019.01.021)
